Test results: patent US9498442B2 (ALFA WASSERMANN S.P.A., priority 2010, dated 2016)
Converted amounts (≈) assume the structure as drawn. Like-named read-outs stand apart in the source and are kept apart here.

Experiments:
[1] = Solubility over time of rifaximin preparations in phosphate buffer pH 6.8; format: physicochemical
Experimental: Samples taken at 5-minute intervals during the first hour and at 15-minute intervals in the remaining time, are analysed in HPLC after filtration.

[2] = Particle size dimension (PSD), Beckman-Coulter LS100 Q; format: physicochemical; settings: solvent White Spirit
Experimental: The particle size analysis were performed using Beckman—Coulter LS100 Q particle size analyzer equipped with a micro-volume cell. The solvent used is White Spirit (WS). In Table 4 are reported the average size of the particles obtained with spray drying and milling processes.

Bulk density = format: physicochemical; settings: 10 ml volumetric flask, three samples
[3] = tested on: enterotoxogenic Escherichia coli isolates; settings: cited from earlier work
[4] = tested on: enteric bacteria pathogens; settings: cited from earlier work
[5] = Rifaximin solubility at different pH, shake flask method; format: physicochemical; settings: for solubility: thermodynamic from solid, shake flask, 20° C.
Experimental: The study was conducted in accordance with accepted principles in order to meet the requirements of the Annex to European Commission Directive 92/69/EEC and the OECD Guidelines for Testing of Chemicals (EEC Method A6, OECD Method 105). […] Aliquots of the saturated solutions of rifaximin-α were adequately diluted, then analyzed by a high performance liquid chromatography (HPLC) method.

[6] = PK study on dogs of rifaximin prepared by spray drying; format: in vivo, dog (beagle); settings: blood
Experimental: Capsules of hard gelatin containing only rifaximin were administered, and the pre- and post-dose observations, the body weight and the physical examination were evaluated.
Blood samples were collected from all animals on each day of dosing at: 0 (pre-dose), 1, 2, 4, 6, 8 and 24 hours after each dosing.

[7] = Stability of rifaximin powder obtained by spray drying on storage; format: physicochemical; settings: for Description / Total impurities / Water content (Karl Fisher) / X-Ray diffraction spectrum: 40° C. ± 2° C., RH 75 ± 5%; for X-Ray diffraction spectrum: complies with an amorphous form of Rifaximin

CO[C@H]1/C=C/O[C@@]2(C)Oc3c(C)c(O)c4c(O)c(c5c(nc6cc(C)ccn65)c4c3C2=O)NC(=O)/C(C)=C\C=C\[C@H](C)[C@H](O)[C@@H](C)[C@@H](O)[C@@H](C)[C@H](OC(C)=O)[C@@H]1C [rifaximin by milling, rifaximin, reference compound]
Solubility over time, Concentration ([1]; 5 min, 500 mg in 750 ml phosphate buffer pH 6.8, 30±0.5° C., 250 rpm): 10.8 µg/mL (≈ 13.7 µM)
Solubility over time, Concentration ([1]; 10 min, phosphate buffer pH 6.8, 30±0.5° C.): 14.3 µg/mL (≈ 18.2 µM)
Solubility over time, Concentration ([1]; 15 min, phosphate buffer pH 6.8, 30±0.5° C.): 15.9 µg/mL (≈ 20.2 µM)
Solubility over time, Concentration ([1]; 20 min, phosphate buffer pH 6.8, 30±0.5° C.): 16.7 µg/mL (≈ 21.2 µM)
Solubility over time, Concentration ([1]; 25 min, phosphate buffer pH 6.8, 30±0.5° C.): 16.9 µg/mL (≈ 21.5 µM)
Solubility over time, Concentration ([1]; 30 min, phosphate buffer pH 6.8, 30±0.5° C.): 16.7 µg/mL (≈ 21.2 µM)
Solubility over time, Concentration ([1]; 35 min, phosphate buffer pH 6.8, 30±0.5° C.): 16.1 µg/mL (≈ 20.5 µM)
Solubility over time, Concentration ([1]; 40 min, phosphate buffer pH 6.8, 30±0.5° C.): 15.4 µg/mL (≈ 19.6 µM)
Solubility over time, Concentration ([1]; 45 min, phosphate buffer pH 6.8, 30±0.5° C.): 14.8 µg/mL (≈ 18.8 µM)
Solubility over time, Concentration ([1]; 50 min, phosphate buffer pH 6.8, 30±0.5° C.): 14.0 µg/mL (≈ 17.8 µM)
Solubility over time, Concentration ([1]; 55 min, phosphate buffer pH 6.8, 30±0.5° C.): 13.5 µg/mL (≈ 17.2 µM)
Solubility over time, Concentration ([1]; 90 min, phosphate buffer pH 6.8, 30±0.5° C.): 10.9 µg/mL (≈ 13.9 µM)
Solubility over time, Concentration ([1]; 105 min, phosphate buffer pH 6.8, 30±0.5° C.): 9.8 µg/mL (≈ 12.5 µM)
Solubility over time, Concentration ([1]; 120 min, phosphate buffer pH 6.8, 30±0.5° C.): 9.0 µg/mL (≈ 11.5 µM)
Solubility over time, Concentration ([1]; 135 min, phosphate buffer pH 6.8, 30±0.5° C.): 8.3 µg/mL (≈ 10.6 µM)
Solubility over time, Concentration ([1]; 150 min, phosphate buffer pH 6.8, 30±0.5° C.): 7.9 µg/mL (≈ 10.1 µM)
solubility at 60 min ([1]; phosphate buffer, 30 °C, pH 6.8, aqueous buffer, thermodynamic from solid, 60 min, phosphate buffer pH 6.8, 30±0.5° C., read-out: Solubility over time, Concentration): 12.9 µg/mL (≈ 16.4 µM)
solubility at 75 min ([1]; phosphate buffer, 30 °C, pH 6.8, aqueous buffer, thermodynamic from solid, 75 min, phosphate buffer pH 6.8, 30±0.5° C., read-out: Solubility over time, Concentration): 12.1 µg/mL (≈ 15.4 µM)
Diameter Particle d10 ([2]; listed as Milling Process): 1.84 μm
Diameter Particle d50 ([2]; listed as Milling Process): 8.17 μm
Diameter Particle d90 ([2]; listed as Milling Process): 12.92 μm
bulk density (Bulk density): 0.327 g/mL

CO[C@H]1/C=C/O[C@@]2(C)Oc3c(C)c(O)c4c(O)c(c5c(nc6cc(C)ccn65)c4c3C2=O)NC(=O)/C(C)=C\C=C\[C@H](C)[C@H](O)[C@@H](C)[C@@H](O)[C@@H](C)[C@H](OC(C)=O)[C@@H]1C [rifaximin, (2S,16Z,18E,20S,21S,22R,23R,24R,25S,26S,27S,28E)-5,6,21,23,25 pentahydroxy-27-methoxy-2,4,11,16,20,22,24,26-octamethyl-2,7-(epoxypentadeca-(1,11,13)trienimino) benzofuro (4,5-e) pyrido(1,2,-a) benzimi-dazole-1,15(2H)-dione,25-acetate]
virulence of the pathogens ([3]; contact maintained only for 8 hours): not abolished
concentration effective in the alteration of the virulence ([3]; continuous contact for at least 24 hours): 8 fold lower than MIC
sub-inhibitory concentration at which alteration of virulence factor occurs [4]: 32 folds lower than the MIC values
effect of pH variation on solubility ([5]; pH variation between 5 and 7): does not affect the solubility

CO[C@H]1/C=C/O[C@@]2(C)Oc3c(C)c(O)c4c(O)c(c5c(nc6cc(C)ccn65)c4c3C2=O)NC(=O)/C(C)=C\C=C\[C@H](C)[C@H](O)[C@@H](C)[C@@H](O)[C@@H](C)[C@H](OC(C)=O)[C@@H]1C [Example 1, rifaximin]
Solubility over time, Concentration ([1]; 10 min, phosphate buffer pH 6.8, 30±0.5° C., listed as Spray drying): 30.2 µg/mL (≈ 38.4 µM)
Solubility over time, Concentration ([1]; 15 min, phosphate buffer pH 6.8, 30±0.5° C., listed as Spray drying): 44.0 µg/mL (≈ 56 µM)
Solubility over time, Concentration ([1]; 20 min, phosphate buffer pH 6.8, 30±0.5° C., listed as Spray drying): 47.0 µg/mL (≈ 59.8 µM)
Solubility over time, Concentration ([1]; 25 min, phosphate buffer pH 6.8, 30±0.5° C., listed as Spray drying): 38.0 µg/mL (≈ 48.4 µM)
Solubility over time, Concentration ([1]; 60 min, phosphate buffer pH 6.8, 30±0.5° C., listed as Spray drying): 11.0 µg/mL (≈ 14 µM)
Solubility over time, Concentration ([1]; 75 min, phosphate buffer pH 6.8, 30±0.5° C., listed as Spray drying): 9.9 µg/mL (≈ 12.6 µM)
Solubility over time, Concentration ([1]; 90 min, phosphate buffer pH 6.8, 30±0.5° C., listed as Spray drying): 9.5 µg/mL (≈ 12.1 µM)
Solubility over time, Concentration ([1]; 105 min, phosphate buffer pH 6.8, 30±0.5° C., listed as Spray drying): 9.3 µg/mL (≈ 11.8 µM)
Solubility over time, Concentration ([1]; 120 min, phosphate buffer pH 6.8, 30±0.5° C., listed as Spray drying): 9.1 µg/mL (≈ 11.6 µM)
Solubility over time, Concentration ([1]; 135 min, phosphate buffer pH 6.8, 30±0.5° C., listed as Spray drying): 9.0 µg/mL (≈ 11.5 µM)
Solubility over time, Concentration ([1]; 150 min, phosphate buffer pH 6.8, 30±0.5° C., listed as Spray drying): 8.8 µg/mL (≈ 11.2 µM)
solubility at 5 min ([1]; phosphate buffer, 30 °C, pH 6.8, aqueous buffer, thermodynamic from solid, 5 min, 500 mg in 750 ml phosphate buffer pH 6.8, 30±0.5° C., 250 rpm, read-out: Solubility over time, Concentration): 14.4 µg/mL (≈ 18.3 µM)
solubility at 30 min ([1]; phosphate buffer, 30 °C, pH 6.8, aqueous buffer, thermodynamic from solid, 30 min, phosphate buffer pH 6.8, 30±0.5° C., read-out: Solubility over time, Concentration): 28.7 µg/mL (≈ 36.5 µM)
solubility at 35 min ([1]; phosphate buffer, 30 °C, pH 6.8, aqueous buffer, thermodynamic from solid, 35 min, phosphate buffer pH 6.8, 30±0.5° C., read-out: Solubility over time, Concentration): 22.4 µg/mL (≈ 28.5 µM)
solubility at 40 min ([1]; phosphate buffer, 30 °C, pH 6.8, aqueous buffer, thermodynamic from solid, 40 min, phosphate buffer pH 6.8, 30±0.5° C., read-out: Solubility over time, Concentration): 17.7 µg/mL (≈ 22.5 µM)
solubility at 45 min ([1]; phosphate buffer, 30 °C, pH 6.8, aqueous buffer, thermodynamic from solid, 45 min, phosphate buffer pH 6.8, 30±0.5° C., read-out: Solubility over time, Concentration): 14.9 µg/mL (≈ 19 µM)
solubility at 50 min ([1]; phosphate buffer, 30 °C, pH 6.8, aqueous buffer, thermodynamic from solid, 50 min, phosphate buffer pH 6.8, 30±0.5° C., read-out: Solubility over time, Concentration): 13.1 µg/mL (≈ 16.7 µM)
solubility at 55 min ([1]; phosphate buffer, 30 °C, pH 6.8, aqueous buffer, thermodynamic from solid, 55 min, phosphate buffer pH 6.8, 30±0.5° C., read-out: Solubility over time, Concentration): 11.8 µg/mL (≈ 15 µM)
Diameter Particle d10 ([2]; listed as Spray Drying Process): 4.56 μm
Diameter Particle d50 ([2]; listed as Spray Drying Process): 19.60 μm
Diameter Particle d90 ([2]; listed as Spray Drying Process): 62.21 μm
bulk density (Bulk density; listed as rifaximin by spay drying): 0.257 g/mL
Tmax ([6]; female, beagle, dog, po, 100 mg/kg): 2 h
AUC(0-t) ([6]; female, beagle, dog, po, 100 mg/kg, read-out: AUC0-24 h, mean (±standard error)): 2850 ± 1490 ng·h/mL
Cmax ([6]; female, beagle, dog, po, 100 mg/kg, read-out: Cmax, mean (±standard error)): 1040 ± 588 ng/mL
AUC(0-t) ([6]; human (calculated), oral, 2.9 mg/kg, calculated from dog values (100 mg/kg, HED 54.4 mg/kg), mean ± standard error, read-out: AUC0-24 h, values calculated in humans proportionally reduced to the dosage 2.9 mg/kg): 143 ± 80.1 ng·h/mL
Cmax ([6]; human (calculated), oral, 2.9 mg/kg, calculated from dog values (100 mg/kg, HED 54.4 mg/kg), mean ± standard error, read-out: Cmax, values calculated in humans proportionally reduced to the dosage 2.9 mg/kg): 56.1 ± 31.6 ng/mL
Description ([7]; 1 month): Red-orange
Total impurities ([7]; 1 month): 0.54%
Water content (Karl Fisher) ([7]; 1 month): 4.9%
X-Ray diffraction spectrum ([7]; 1 month): Complies with
Description ([7]; 3 months): Red-orange
Total impurities ([7]; 3 months): 0.95%
Water content (Karl Fisher) ([7]; 3 months): 5.4%
X-Ray diffraction spectrum ([7]; 3 months): Complies with
stability of the obtained rifaximin powder ([7]; 40° C.+2, relative humidity 75%, up to three months): stable
Description ([7]; T0, acceptance Red-orange powder): Red-orange
Total impurities ([7]; T0, acceptance ≦2.0%): 0.51%
Water content (Karl Fisher) ([7]; T0, acceptance ≦8%): 2.2%
X-Ray diffraction spectrum ([7]; T0): Complies with
stability of rifaximin in powder form ([7]; after three months, 30° C. to 40° C., humidity degree higher than 50%): stable

CO[C@H]1/C=C/O[C@@]2(C)Oc3c(C)c(O)c4c(O)c(c5c(nc6cc(C)ccn65)c4c3C2=O)NC(=O)/C(C)=C\C=C\[C@H](C)[C@H](O)[C@@H](C)[C@@H](O)[C@@H](C)[C@H](OC(C)=O)[C@@H]1C [rifaximin-α, rifaximin]
solubility ([5]; aqueous buffer, pH 4 buffer solution): 4.12 µg/mL (≈ 5.24 µM)
solubility ([5]; aqueous buffer, pH 7 buffer solution): 3.22 µg/mL (≈ 4.1 µM)
solubility ([5]; aqueous buffer, pH 10 buffer solution): 299 µg/mL (≈ 380 µM)
solubility ([5]; Purified water, saturated solutions of rifaximin-α): 3.63 µg/mL (≈ 4.62 µM)
